Measured values: US11426467B2, “Dosage regimes for the administration of an anti-CD25 ADC” (ADC THERAPEUTICS SA, priority 2017, dated 2022)

Assay: Steroid administration with ADC, toxicity symptoms reported by subjects
Type: in vivo
Settings: steroid given with ADC dosage regimes

C[C@@H]1C[C@H]2[C@@H]3CCC4=CC(=O)C=C[C@]4(C)[C@@]3(F)[C@@H](O)C[C@]2(C)[C@@]1(O)C(=O)CO [dexamethasone, (8S,9R,10S,11S,13S,14S,16R,17R)-9-Fluoro-11,17-dihydroxy-17-(2-hydroxyacetyl)-10,13,16-trimethyl-6,7,8,9,10,11,12,13,14,15,16,17-dodecahydro-3H-cyclopenta[a]phenanthren-3-one]
frequency and/or severity of toxicity symptom reported by subjects: reduced the frequency and/or severity of toxicity symptom
